Results on 58 compounds are retold here after the METLIN SMRT retention time set (Domingo-Almenara et al. 2019).

The data set is described as follows: gradient 5% acetonitrile 3 min, to 50% in 2 min, to 85% in 15 min, held 3 min, 100 µL/min. The conditions noted are these: column: Zorbax Extend-C18 2.1 x 50 mm; eluents: water / acetonitrile, 0.1% formic acid. In short, it runs like this:
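A Zorbax Extend-C18 column (2.1 × 50 mm, 1.8 μm) run at 100 μL/min with water and acetonitrile, both containing 0.1% formic acid, separated mixtures of ~100 pure standards. The HPLC was coupled to a quadrupole time-of-flight mass spectrometer operated in positive and negative ionization mode, with dead and dwell volumes of 40 μL and 900 μL. Each retention time was taken from a computationally picked adduct peak that was then manually inspected.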
Compound `CCCC(=O)Nc1ccc(CCc2nc3ccc(C(=O)NCc4ccco4)cc3[nH]2)cc1` had an RP-LC retention time of 635 s.

For the compound `O=C(NCCc1ccccc1)N1CCN(CCn2c(-c3ccncc3)nc3cccnc32)CC1`, the RP-LC retention time was 593 s.

Turning to `CC(NC(=O)CCCn1c(=O)c2cccn2c2ccc(Br)cc21)C(=O)N1CCCCC1` (stereo not drawn), the RP-LC retention time came to 832 s.

In turn, `CCc1nc2sc(C(C)C)nn2c1S(=O)(=O)N1CCSCC1` displayed an RP-LC retention time of 962 s.

As to `Fc1cccc(Nc2ncnc3c2cnn3-c2ccccc2)c1`, the RP-LC retention time was 1020 s.

For the compound `O=C(c1cccnc1N1CCNC(c2ccccc2)C1)N1CCSCC1` (stereo not drawn), the RP-LC retention time came out at 606 s.

`CCC(=O)N(C1CCOCC1)C1CCN(S(=O)(=O)c2ccc(Cl)c(C)c2)CC1` displayed an RP-LC retention time of 954 s.

The compound `Cn1c(=O)n(CC(N)=O)c(=O)c2c1nc1n2CCCN1C1CCCCC1` displayed an RP-LC retention time of 657 s.

The compound `CC(=O)Nc1cccc(N2CC(C(=O)Nc3ccc(OC(F)(F)F)cc3)CC2=O)c1` (stereo not drawn) came in with an RP-LC retention time of 760 s.

`O=C(Nc1ccccc1)N1CCN(c2ncccc2-c2nnc(C3CC3)o2)CC1` returned an RP-LC retention time of 750 s.

Regarding `COCC(C)(O)CNS(=O)(=O)Cc1cccc(F)c1` (stereo not drawn), the RP-LC retention time is 641 s.

Compound `CN(C)c1ccc2c(c1)CN(C(=O)Cn1c(=O)oc3ccccc31)CCO2` gave an RP-LC retention time of 621 s.

Take `Cc1ccc(CNC(=O)C2(C)CN(S(C)(=O)=O)CC(=O)N2CCc2ccccc2)cc1` (stereo not drawn): the RP-LC retention time is 856 s.

Take `COc1ccc(-c2ncc3c(n2)CCN(C(=O)Nc2ccc(F)c(Cl)c2)C3)cc1`: the RP-LC retention time was 1020 s.

In turn, `O=C(Cc1csc(NC(=O)NC2CCCCC2)n1)NCc1c(F)cccc1F` had an RP-LC retention time of 737 s.

In turn, `Cc1ccc(S(=O)(=O)N2CC3CN(C(=O)C4COc5ccccc5O4)CC(C2)O3)cc1` (stereo not drawn) displayed an RP-LC retention time of 928 s.

As for `COc1ccc(Cl)cc1S(=O)(=O)NCCn1nc(C)cc1C`, the RP-LC retention time came out at 719 s.

With `CC(C)CN1CCn2cc(C(=O)N3CCN(c4ccc(F)cc4)CC3)nc2C1`, the RP-LC retention time stood at 613 s.

Take `Cc1cc(C)cc(S(=O)(=O)N2CCc3c(c(-c4nnc(-c5ccccc5F)o4)nn3C)C2)c1`: the RP-LC retention time came to 998 s.

In the case of `O=C(c1cccc(OC(F)(F)F)c1)N1CCN(c2cc(-c3cccs3)[nH]n2)CC1`, the RP-LC retention time came out at 828 s.

Consider `Cc1ccc(C(=O)N2CCC(n3c(-c4ccco4)nc4cccnc43)C2)cc1C` (stereo not drawn), for which the RP-LC retention time was determined as 806 s.

With `COCCN1C(=O)c2cccn2CC1CNC(=O)Cc1c(C)noc1C` (stereo not drawn), the RP-LC retention time was found to be 610 s.

On to `O=c1c(NCCN2CCCC2)nc2ccncc2n1Cc1ccccc1`, for which the RP-LC retention time was found to be 876 s.

`CC(=O)N1c2ccc(S(=O)(=O)N3CCCCC3)cc2CC1C(=O)N(C)Cc1ccccc1` (stereo not drawn) yielded an RP-LC retention time of 864 s.

Take `CC(=O)Nc1ccc(CCc2nc3ccc(C(=O)NCC4CCCO4)cc3[nH]2)cc1` (stereo not drawn): the RP-LC retention time is 562 s.

Turning to `CN1CCC(NC(=O)c2n[nH]c3c2CN(C(=O)c2ccccc2Br)CC3)CC1`, the RP-LC retention time worked out at 595 s.

`CCN(c1ccccc1)S(=O)(=O)c1ccc(C(=O)Nc2cc(C)nn2C(C)C)cc1` registered an RP-LC retention time of 858 s.

The compound `NC(=O)c1cccc2ncc(-c3ccc(Cl)cc3)nc12` showed an RP-LC retention time of 831 s.

As to `COC(=O)c1cc2c(=O)n(-c3cc(OC)c(OC)c(OC)c3)ccc2nc1C`, the RP-LC retention time stood at 751 s.

In turn, `O=C(NC1CCCCC1N1C(=O)CSC1=O)c1ccc[nH]c1=O` (stereo not drawn) yielded an RP-LC retention time of 606 s.

With `O=C(Nc1cnc(N2CCCC2)nc1)c1cccc(Br)c1`, the RP-LC retention time turned out to be 796 s.

Compound `CCN1CCN(c2c(C(=O)c3ccc(OC)cc3)cnc3cc4c(cc23)OCCO4)CC1` displayed an RP-LC retention time of 551 s.

`CCc1ccc(C(O)CN2CCN(c3ncccn3)CC2)cc1` (stereo not drawn): the RP-LC retention time worked out at 621 s.

Compound `O=C(NCCCn1cccn1)c1cn2ccccc2n1` showed an RP-LC retention time of 570 s.

Consider `C=CCN1C(=O)COc2ccc(-c3csc(NC(=O)c4ccc(Cl)cc4)n3)cc21`, for which the RP-LC retention time was 1100 s.

For the compound `CC1(C)CC(=O)c2cn(-c3ccc(F)cc3)c(=O)c(C(=O)Nc3ccc4c(c3)OCCO4)c2C1`, the RP-LC retention time worked out at 1000 s.

`O=c1ccc(-c2ccncc2)nn1CCCNS(=O)(=O)c1cccs1` yielded an RP-LC retention time of 571 s.

The compound `CCc1nc(-c2cc(S(=O)(=O)NCC(=O)N3CCCC3)c(C)s2)no1` showed an RP-LC retention time of 787 s.

Compound `CCN(C(=O)C1CCCN(c2ncnc3c2nc2n3CCCCC2)C1)c1cc(C)ccc1C` (stereo not drawn) displayed an RP-LC retention time of 905 s.

The compound `COc1ccccc1CNC(=O)C1CC(=O)N(c2n[nH]c3cccc(F)c23)C1` (stereo not drawn) gave an RP-LC retention time of 711 s.

The compound `CC1CCN(c2nc3c(c(=O)n(Cc4ccccc4F)c(=O)n3C)n2C)CC1` had an RP-LC retention time of 1130 s.

For `COc1ccc(C2(c3nc(-c4ccc(CNC(=O)C5CC5)s4)no3)CC2)cc1`, the RP-LC retention time worked out at 955 s.

The compound `Cc1ccc(-n2ccc(=O)c(-c3nc(-c4ccc(F)c(Cl)c4)no3)n2)cc1` yielded an RP-LC retention time of 1030 s.

`COC(=O)c1cc2c(=O)n(CCc3ccc(OC)c(OC)c3)ccc2nc1C` returned an RP-LC retention time of 769 s.

In turn, `O=C(c1ccc2c(=O)n(Cc3ccccc3)c(N3CCCC3)nc2c1)N1CCN(c2ccccn2)CC1` yielded an RP-LC retention time of 655 s.

In turn, `COc1ccc(S(=O)(=O)N2CCC(c3cc4n(n3)CCCN(C)C4=O)CC2)cc1` came in with an RP-LC retention time of 720 s.

The compound `O=C(C1CCN(S(=O)(=O)c2cc(-c3noc(C4CC4)n3)cs2)CC1)N1CCc2ccccc21` had an RP-LC retention time of 1070 s.

For the compound `CNC(=O)[C@@H]1CN(C(=O)CCn2nc(C)cc2C)C[C@H]1c1n[nH]c(C)n1`, the RP-LC retention time is 554 s.

`COC(=O)c1sccc1NC(=O)C1CCCN(c2ncnc3c2nc2n3CCCCC2)C1` (stereo not drawn): the RP-LC retention time turned out to be 922 s.

For the compound `COc1ccc(N2C(=O)C3N=NN(Cc4nc(-c5ccc(C)cc5)no4)C3C2=O)cc1` (stereo not drawn), the RP-LC retention time stood at 992 s.

Consider `CCc1ccccc1NS(=O)(=O)c1ccc(CN2C(=O)c3ccccc3C2=O)cc1`, for which the RP-LC retention time was determined as 954 s.

Consider `COc1ccc2c(c1)C1(CCN(C(=O)Nc3cccc(F)c3)C1)C(=O)N2` (stereo not drawn), for which the RP-LC retention time came out at 683 s.

With `COC(=O)c1ncn2c1C(=O)N(Cc1ccc(F)cc1Cl)C(C)(C(=O)NCc1ccccc1)C2` (stereo not drawn), the RP-LC retention time turned out to be 771 s.

`CCOC(=O)c1ccc(OC(=O)c2cn(C)c(=O)c3ccccc23)cc1` gave an RP-LC retention time of 953 s.

`COc1ccc(-c2ccnc3nc(C4CCC4)nn23)c(F)c1` came in with an RP-LC retention time of 869 s.

Turning to `O=C(Nc1ccccc1)c1cnc(-c2ccc(F)cc2)nc1-c1ccncc1`, the RP-LC retention time came to 892 s.

`Oc1ccccc1-c1nc2ccc(Cl)cn2c1Nc1ccc2c(c1)OCCO2` yielded an RP-LC retention time of 879 s.

Compound `O=C(Cc1ccc(F)cc1)Nc1ccc(-c2ccc3nncn3n2)cc1` had an RP-LC retention time of 676 s.
